Measured values from patent US20240285726A1, “Bacteriocin for new application” (Syngulon S.A., priority 2021, published 2024).
“Also recorded” adds a separate entry of the source. Ends that are not written are not given here.

What was measured:
[1] = system: S. epidermidis ATCC 12228; assay: Antimicrobial activity test on inoculated M17 agar plates (inhibition halo); format: cell-based, Staphylococcus epidermidis; settings: 2 μl of 1 mg/ml aqueous solution on inoculated M17 agar plate, overnight incubation
Experimental: (§1) Bacterial strains were grown overnight in liquid culture on rotary shakers or on agar plates using M17 media supplemented with 0.5% glucose. S. aureus ATCC 6538 and S. epidermidis ATCC 12228 liquid cultures and agar plates were grown anaerobically at 37° C. Culture volume utilized in MIC assays was 200 μl.
(§2) Antimicrobial activities of bacteriocins were tested on M17 agar plates in Examples 1 and 3. In Example 1, 2 μl of bacteriocin peptide (SEQ ID NO: 1) aqueous solutions at a concentration of 1 mg/ml were deposited on inoculated M17 agar plates of S. aureus ATCC 6538 and S. epidermidis ATCC 12228. An equivalent amount of aureocin A53 aqueous solution (1 mg/ml concentration) was used as positive control. In the case of S. epidermidis ATCC 12228, an equivalent amount of pediocin A1 aqueous solution (1 mg/ml concentration) was used as negative control.

S. aureus ATCC 6538 [2] = assay: as above; format: cell-based, Staphylococcus aureus; settings: for antimicrobial activity of variants (inhibition halo): 5 μl of 1 mg/ml aqueous solution on M17 agar plates of S. aureus ATCC 6538, overnight incubation, compared with SEQ ID NO: 1
Experimental: as §1, §2
In Example 3, 5 μl of bacteriocin peptides (SEQ ID NO: 1, 3-97) aqueous solutions at a concentration of 1 mg/ml were deposited on inoculated M17 agar plates of S. aureus ATCC 6538. After overnight incubation, the presence of an inhibition halo was considered as a positive result of antimicrobial activity.

S. aureus ATCC 6538 [3] = assay: MIC assay in liquid cultures (endpoint OD600); format: cell-based, Staphylococcus aureus; settings: calculated as average concentration between wells 10 and 11
Experimental: as §1
(§3) Determination of bacteriocin (SEQ ID NO: 1) MIC values was performed in liquid cultures. Growth was assessed by measuring endpoint OD600 values in a Spectramax i3 (Molecular Devices, CA, USA). Minimum inhibitory concentration (MIC) was defined as the lowest concentration of bacteriocin which inhibited 50% of the growth of cultures as compared to reference cultures not exposed to the bacteriocin. Concentration of the bacteriocin in well 11 was 250 μg/ml in the case of S. aureus ATCC 6538 and 500 μg/ml in the case of S. epidermidis ATCC 12228, diluted 2-fold per subsequent well as shown in Table 3 (concentrations rounded to the second decimal): […]

[4] = system: S. epidermidis ATCC 12228; assay: MIC assay in liquid cultures (endpoint OD600); format: cell-based, Staphylococcus epidermidis; settings: liquid culture, concentrations 0.49 to 500 μg/ml
Experimental: as §1, §3

Row | Substance | inhibition halo on agar plate [1] | antimicrobial activity of variants (inhibition halo) (S. aureus ATCC 6538 [2]) | further results
1 | pediocin A1 [reference compound] | no inhibition halo was visible |  | 
2 | MLAFLKLVAKLGPKAAKWAWANKGKVLGWIRDGLAIDWIINKINDIVN [SEQ ID NO: 1] | no inhibition halo was visible; also recorded: no inhibition halo was present |  | inhibition halo on agar plate (S. aureus ATCC 6538 [2]; 2 μl of 1 mg/ml aqueous solution on inoculated M17 agar plate, overnight incubation, S. aureus ATCC 6538): An inhibition halo was visible; MIC (lowest concentration inhibiting 50% of culture growth) (S. aureus ATCC 6538 [3]): 188 µg/mL; growth inhibition in MIC assay [4]: No growth inhibition was observed
3 | MAFLKLVAKLGPKAAKWAWANKGKVLGWIRDGLAIDWIINKINDIVN [SEQ ID NO: 54] |  | did not compromise its antimicrobial activity | 
4 | MLFLKLVAKLGPKAAKWAWANKGKVLGWIRDGLAIDWIINKINDIVN [SEQ ID NO: 55] |  | did not compromise its antimicrobial activity | 
5 | aureocin A53 [reference compound] | an inhibition halo was present |  | 
6 | MLAFLKLVAKLGPKAAKWAWANKGKVLGWIRDGLAIINKINDIVN [SEQ ID NO: 62] |  | did not compromise its antimicrobial activity | 
